Assays:
[1] = tested on: Rattus norvegicus; test: Inhibitory effect of perorally administered compound (0.0005 mg/kg) on gastric lesions induced by ethanol in 10 rats with observed lession index (49.2 mm) was determined; type: functional, Stomach
[2] = tested on: Rattus norvegicus; test: Inhibitory effect of perorally administered compound (0.001 mg/kg) on gastric lesions induced by ethanol in 9 rats with observed lession index (12.1 mm) was determined; type: functional, Stomach
[3] = tested on: Rattus norvegicus; test: Inhibitory effect of perorally administered compound (1.0 mg/kg) on gastric lesions induced by ethanol in 9 rats with observed lession index (100.5 mm) was determined; type: functional, Stomach
[4] = tested on: Rattus norvegicus; test: Gastroprotective effect of compound was determined in rats at a concentration of 0.1 mg/kg po; type: functional
[5] = tested on: Rattus norvegicus; test: Inhibitory effect of perorally administered compound (0.5 mg/kg) on gastric lesions induced by ethanol in 7 rats with observed lession index (4.3 mm) was determined; type: functional, Stomach
[6] = tested on: Rattus norvegicus; test: Inhibitory effect of perorally administered compound (1.0 mg/kg) on gastric lesions induced by ethanol in 6 rats with observed lession index (0.9 mm) was determined; type: functional, Stomach
[7] = tested on: Rattus norvegicus; test: Inhibitory effect of perorally administered compound (0.1 mg/kg) on gastric lesions induced by ethanol in 7 rats with observed lession index (95.0 mm) was determined; type: functional, Stomach
[8] = tested on: Rattus norvegicus; test: Inhibitory effect of perorally administered compound (0.2 mg/kg) on gastric lesions induced by ethanol in 7 rats with observed lession index (50.0 mm) was determined; type: functional, Stomach
[9] = tested on: Rattus norvegicus; test: Inhibitory effect of perorally administered compound (1.0 mg/kg) on gastric lesions induced by ethanol in 5 rats with observed lession index (68.7 mm) was determined; type: functional, Stomach
[10] = tested on: Rattus norvegicus; test: Inhibitory effect of perorally administered compound (0.2 mg/kg) on gastric lesions induced by ethanol in 5 rats with observed lession index (91.3 mm) was determined; type: functional, Stomach
[11] = tested on: Rattus norvegicus; test: Inhibitory effect of perorally administered compound (1.0 mg/kg) on gastric lesions induced by ethanol in 6 rats with observed lession index (91 mm) was determined; type: functional, Stomach
[12] = tested on: Rattus norvegicus; test: Inhibitory effect of perorally administered compound (1.0 mg/kg) on gastric lesions induced by ethanol in 6 rats with observed lession index (103.7 mm) was determined; type: functional, Stomach
[13] = tested on: Rattus norvegicus; test: Inhibitory effect of perorally administered compound (1.0 mg/kg) on gastric lesions induced by ethanol in 9 rats with observed lession index (88.1 mm) was determined; type: functional, Stomach
[14] = tested on: Rattus norvegicus; test: Inhibitory effect of perorally administered compound (0.0125 mg/Kg) on gastric lesions induced by ethanol in 5 rats with observed lession index (129.6 mm) was determined; type: functional, Stomach
[15] = tested on: Rattus norvegicus; test: Inhibitory effect of perorally administered compound (0.025 mg/kg) on gastric lesions induced by ethanol in 5 rats with observed lession index (84.8 mm) was determined; type: functional, Stomach
[16] = tested on: Rattus norvegicus; test: Inhibitory effect of perorally administered compound (0.05 mg/kg) on gastric lesions induced by ethanol in 5 rats with observed lession index (48.8 mm) was determined; type: functional, Stomach
[17] = tested on: Rattus norvegicus; test: Inhibitory effect of perorally administered compound (0.1 mg/kg) on gastric lesions induced by ethanol in 5 rats with observed lession index (29.1 mm) was determined; type: functional, Stomach
[18] = tested on: Rattus norvegicus; test: Inhibitory effect of perorally administered compound (0.2 mg/kg) on gastric lesions induced by ethanol in 5 rats with observed lession index (12.6 mm) was determined; type: functional, Stomach
[19] = tested on: Rattus norvegicus; test: Inhibitory effect of perorally administered compound (0.5 mg/kg) on gastric lesions induced by ethanol in 7 rats with observed lession index (0.0 mm) was determined; type: functional, Stomach
[20] = tested on: Rattus norvegicus; test: Gastroprotective effect of compound was determined in rats at a peroral dose of 0.0125 mg/kg; type: functional; conditions: route oral
[21] = tested on: Rattus norvegicus; test: Gastroprotective effect of compound was determined in rats at a concentration of 0.05 mg/kg po; type: functional
[22] = tested on: Rattus norvegicus; test: Inhibitory effect of perorally administered compound (0.5 mg/kg) on gastric lesions induced by ethanol in 7 rats with observed lession index (17.1 mm) was determined; type: functional, Stomach
[23] = tested on: Rattus norvegicus; test: Inhibitory effect of perorally administered compound (1.0 mg/kg) on gastric lesions induced by ethanol in 6 rats with observed lession index (8.5 mm) was determined; type: functional, Stomach
[24] = tested on: Rattus norvegicus; test: Inhibitory effect of perorally administered compound (0.05 mg/kg) on gastric lesions induced by ethanol in 7 rats with observed lession index (120 mm) was determined; type: functional, Stomach
[25] = tested on: Rattus norvegicus; test: Inhibitory effect of perorally administered compound (0.1 mg/kg) on gastric lesions induced by ethanol in 7 rats with observed lession index (90.3 mm) was determined; type: functional, Stomach
[26] = tested on: Rattus norvegicus; test: Inhibitory effect of perorally administered compound (0.2 mg/kg) on gastric lesions induced by ethanol in 7 rats with observed lession index (62.7 mm) was determined; type: functional, Stomach
[27] = tested on: Rattus norvegicus; test: Inhibitory effect of perorally administered compound (1.0 mg/kg) on gastric lesions induced by ethanol in 6 rats with observed lession index (76.4 mm) was determined; type: functional, Stomach

CCCCC(C)(C)[C@H](O)/C=C/C1[C@H](O)CC(=O)[C@@H]1C/C=C\CCCC(=O)O (some centres not stated)
Inhibition [1]: 64.5% | Inhibition [2]: 91.3%

CC1(C)CCC[C@@]2(C)C1CC=C(CO)[C@@H]2CO (some centres not stated)
Inhibition [3]: 27.6%

CO[C@@H]1O[C@@H](OC)[C@H]2C1=CCC1C(C)(C)CCC[C@@]12C (some centres not stated)
ED50 [4]: 0.15 mg/kg | Inhibition [5]: 96.7% | Inhibition [6]: 99.3% | Inhibition [7]: 28% | Inhibition [8]: 62.1%

CO[C@@H]1OCC2=CCC3C(C)(C)CCC[C@]3(C)[C@H]21 (some centres not stated)
Inhibition [9]: 54.6% | Inhibition [10]: 39.6%

COC(=O)C1=CCC2C(C)(C)CCC[C@]2(C)[C@H]1C(=O)OC (some centres not stated)
Inhibition [11]: 37.8%

CC1(C)CCC[C@@]2(C)C1CC=C1COC[C@@H]12 (some centres not stated)
Inhibition [12]: 29.1%

CC(=O)OCC1=CCC2C(C)(C)CCC[C@]2(C)[C@H]1COC(C)=O (some centres not stated)
Inhibition [13]: 36.5%

CC1(C)CCC[C@]2(C)[C@@H](C=O)C(C=O)=CC[C@@H]12 [POLYGODIAL]
Inhibition [14]: 23.5% | Inhibition [15]: 50% | Inhibition [16]: 71.2% | Inhibition [17]: 82.8% | Inhibition [18]: 92.6% | Inhibition [19]: 100% | ED50 [20]: 0.028 mg/kg

CO[C@H]1O[C@@H](OC)[C@H]2C1=CCC1C(C)(C)CCC[C@@]12C (some centres not stated)
ED50 [21]: 0.17 mg/kg | Inhibition [22]: 87.4% | Inhibition [23]: 93.7% | Inhibition [24]: 11.5% | Inhibition [25]: 33.4% | Inhibition [26]: 53.8%

CC1(C)CCC[C@@]2(C)C1CC=C(C(=O)O)[C@@H]2C(=O)O (some centres not stated)
Inhibition [27]: 47.7%
